Reference: US12692274B2, “Tetrahydroisoquinoline derivatives for the treatment of red blood disorders and inflammatory diseases” (Sanofi, priority 2020, dated 2026)
Several values for one entry are separate records, joined by “and”; a condition that tells them apart may be missing. Equal values may be shown once.

Columns and labels:
[1] = target: HIS-Keap1 full length / Biotin-Nrf2 (16-mer) (Homo sapiens, UniProt Q14145); assay: biochemical
[2] = tested on: NQO1 activation in BEAS-2B cells; assay: BEAS-2B cellular MTT assay of NQO1 activation, 0% HSA; type: cell-based
How it was run: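 For the 0% HSA condition, cells were seeded into collagen plates in HSA-free medium. Culture was BEAS-2B in BEBM plus BEGM SingleQuots lacking GA-1000, held under 70% confluence, at a seeding density reaching 95-100% confluence by 48 h.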

[3] = tested on: NQO1 activation in BEAS-2B cells; assay: BEAS-2B cellular MTT assay of NQO1 activation, 0.3% HSA; type: cell-based
Procedure: The growth rate of the BEAS-2B cells changed based on the lot of BEGM SingleQuots in the BEGM media. The cell growth rate was determined for each lot of SingleQuots. Ideally, cells were thawed into media with the new lot of SingleQuots and grown for two passages before testing; however, growing an active culture in the new lot of media for two to three passages before testing was also acceptable. Until the cell growth rate was determined, cells were seeded at different densities (cells/cm^2) in multiple tissue culture flasks in order to avoid the cells becoming more than 70% confluent. Cells should not go above 70% confluent as the cells differentiate when they become confluent. After the cells were grown in the new lot of media as described above, the number of cells per well needed to seed in the collagen plates was determined by seeding different numbers of cells per well and incubating for 48 hours. Cell confluency was checked after 48 hours and a cell number that results in just below to just above confluency was chosen for future plate seeding. Cell confluency in the assay plate was 95-100% confluent after 48 hours.
Cell media consists of BEBM basal media with the BEGM SingleQuots added. SingleQuots vials were thawed in the tissue culture hood, and GA-1000 (Gentamicin-Amphotericin) was not added.
If complete media was to be used immediately, BEBM basal media was warmed to room temperature in the hood, but not as high as 37° C. When the media was made for future use, SingleQuots were added to cold BEBM. One at a time, the SingleQuots components (except GA-1000) were added to the BEBM media. After removal of each component from the vial, the vial was rinsed with 0.5-1 mL of BEBM (depending on the volume the vial could hold) and added to the bottle of BEBM. Once all components were added, the label that comes with the SingleQuots kit was put on the bottle of media and the date was recorded. The bottle of media was mixed by gentle shaking. The media was not filtered. This media was stored at 4° C., with any leftover media disposed of one month after the date the SingleQuots were added.
BEAS-2B Cell Splitting Protocol:
First, Trypsin was warmed to 37° C. in the water bath. The media was then warmed to room temperature by letting it sit in the tissue culture hood, but not as high as 37° C. The media was aspirated from flask(s) and the flask(s) were washed with PBS. From 1 to 1.5 mL of warm trypsin were added to each flask and incubated at 37° C. until cells came off the flask on their own (~8-10 minutes), with no vigorous tapping on the flask to detach the cells.
Media was added to each flask to a total volume of 8-10 mL per flask and transferred to 15 mL conical tube(s). The cells were spun down at 120 g for 5 minutes, level 5 brake. The cells can be spun down between 100 and 150 g. Next the media was aspirated and the cell pellet was resuspended in fresh media by pipetting up and down and flicking the tube side to side. Any clumps of cells that remained were allowed to settle to the bottom of the tube before the top suspension was transferred into another tube, leaving about 1 mL of media in the original tube. The 1 mL of media and cell clumps were mixed with a single channel p1000 pipette, and any remaining clumps were removed before adding the cells in suspension to the other tube. The suspension was mixed with a pipette, an aliquot was removed, and the cells were counted. The amount of cells/cm^2 desired was calculated and the required volume of cells was added to tissue culture flasks. For example, use of SingleQuots with ~6000 cells/cm^2 was appropriate for a three day incubation and ~3000 cells/cm^2 for a five day incubation. Optimal cell density differed depending on lot of SingleQuots. The flasks were incubated at 37° C. in 5% CO2.
Day One: Seeding BEAS-2B Cells in Collagen Plates:
Plate(s) were either seeded with 0.3% or 0% HSA. While the protocol was similar for both conditions any differences are noted herein below. […]

[4] = Homo sapiens, serum free, read-out: BEAS EC50 (nM) serum free
[5] = serum free, read-out: BEAS EC50 (nM) serum free
[6] = Homo sapiens, BEAS+, read-out: BEAS+ EC50
[7] = Homo sapiens, Serum Free W, read-out: BEAS EC50 (nM) Serum Free W
[8] = Serum Free W, read-out: BEAS EC50 (nM) Serum Free W
[9] = BEAS+ W, read-out: BEAS+ W EC50
[10] = Homo sapiens, BEAS+ W, read-out: BEAS+ W EC50

Chain of HIS-Keap1 full length / Biotin-Nrf2 (16-mer) (Q14145 whole entry): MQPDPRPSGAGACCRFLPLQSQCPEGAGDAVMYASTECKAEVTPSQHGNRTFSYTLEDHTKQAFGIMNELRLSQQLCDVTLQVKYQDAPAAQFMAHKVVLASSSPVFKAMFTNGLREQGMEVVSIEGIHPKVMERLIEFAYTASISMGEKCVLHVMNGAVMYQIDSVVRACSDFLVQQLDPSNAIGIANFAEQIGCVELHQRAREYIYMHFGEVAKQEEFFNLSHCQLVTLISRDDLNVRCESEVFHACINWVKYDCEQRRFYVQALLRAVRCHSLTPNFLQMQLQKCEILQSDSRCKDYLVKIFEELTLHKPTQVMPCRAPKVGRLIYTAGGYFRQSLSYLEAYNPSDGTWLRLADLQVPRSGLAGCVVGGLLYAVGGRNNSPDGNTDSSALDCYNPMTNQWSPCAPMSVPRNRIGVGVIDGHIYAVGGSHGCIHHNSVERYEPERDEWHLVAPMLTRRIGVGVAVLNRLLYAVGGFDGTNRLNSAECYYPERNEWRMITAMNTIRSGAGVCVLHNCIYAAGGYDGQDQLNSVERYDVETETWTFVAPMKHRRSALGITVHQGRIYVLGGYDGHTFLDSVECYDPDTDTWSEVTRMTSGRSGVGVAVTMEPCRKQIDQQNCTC

| Structure (SMILES) | IC50 [1] | EC50 [2, 4] [nM] | EC50 [2, 5] [nM] | EC50 ([3]; BEAS+, read-out: BEAS+ EC50) [nM] | EC50 [3, 6] [nM] | EC50 [2, 7] [nM] | EC50 [2, 8] [nM] | EC50 [3, 9] | EC50 [3, 10] [nM] |
| --- | --- | --- | --- | --- | --- | --- | --- | --- | --- |
| Cc1c2ccc3c1nnn3CCCOCCOc1ccc(c(F)c1)C(=O)N1CCc3ccc(cc3C1)[C@@H]2[C@H](C)C(=O)O [Compound 369] | 13.2 nM and 14 nM | 2010 | 1930 | 2230 | 2080 |  |  |  |  |
| Cc1cc2ncc1[C@H](CC(=O)O)c1ccc3c(c1)CN(CC3)C(=O)c1ccc(cc1)CCOCCO2 [Compound 350] | 11.5 nM and 10.1 nM and 9.8 nM and 10.2 nM |  |  |  |  | 161 | 145 | 426 nM | 276 |
| Cc1cc2ccc1OCCCCCCn1nnc3c(C)c(ccc31)C(CC(=O)O)c1ccc3c(c1)CN(CC3)C2=O (centres unmarked) [Compound 260] | 6 nM | 400 | 403 | 484 | 337 |  |  |  |  |
| COc1cc2ccc1CCCCCCn1nnc3c(C)c(cnc31)C(CC(=O)O)c1ccc3c(c1)CN(CC3)C2=O (centres unmarked) [Compound 104] | 0.2 nM and 0.3 nM and 1.7 nM and 1.6 nM | 9.3 | 7.4 | 19.2 | 16.4 | 30 | 36.5 | 130 nM | 147 |
| Cc1c2ccc3c1nnn3CCCCCCOc1cnc(cn1)C(=O)N1CCc3ccc(cc3C1)C2CC(=O)O (centres unmarked) [Compound 379, 2-(34-methyl-22-oxo-17-oxa-8,9,10,19,23,32-hexazahexacyclo[21.5.3.218,21.13,7.06,10.026,30]tetratriaconta-1(29),3,5,7(34),8,18,20,26(30),27,32-decaen-2-yl)acetic Acid] | 5.2 nM and 5.4 nM | 158 | 147 | 193 | 206 |  |  |  |  |
| C[C@@H](C(=O)O)[C@H]1c2ccc3c(c2)CN(CC3)C(=O)c2ccc(cc2)OCCCCCn2nnc3cc1ccc32 [Compound 232] | 1.4 nM | 7.2 | 4.6 | 8.3 | 9 |  |  |  |  |
| Cc1c2n(C)c3ccc(cc13)CCCCCCn1nnc3c(C)c(cnc31)[C@@H](CC(=O)O)c1ccc3c(c1)CN(CC3)C2=O [Compound 63] | 0.5 nM and 0.4 nM |  |  |  |  | 0.7 | 0.9 | 3.7 nM and 3.5 nM | 2.8 |
| O=C(O)CC1c2ccc(cc2)OCCCCCc2ccc(cc2)C(=O)N2CCc3ccc1cc3C2 (centres unmarked) [Compound 396] | 94.7 nM and 138 nM | 80.5 | 78.2 | 176 | 204 |  |  |  |  |
| O=C(O)C[C@H]1c2cnc(nc2)OCCCCCc2c(F)c(F)c(c(F)c2F)C(=O)N2CCc3ccc1cc3C2 [Compound 45] | 229 nM and 244 nM |  |  |  |  | > 1000 |  |  | > 10000 |
| Cc1c2ccc3c1nnn3CCCCCCOc1ccc(cc1)C(=O)N1CCc3ccc(cc3C1)[C@H]2[C@@H](C)C(=O)O [Compound 155] | 734 nM and 514 nM | > 10000 |  |  | > 10000 |  |  |  |  |
| Cc1c2cnc3c1nnn3CCCCCc1ccc(cc1)C(=O)N1CCc3ccc(cc3C1)[C@@H]2CC(=O)O [Compound 124] | 0.6 nM |  |  |  |  | 7.6 | 7.3 | 12.5 nM | 9 |
| Cc1cc2ncc1[C@H]([C@@H](C)C(=O)O)c1ccc3c(c1)CN(CC3)C(=O)c1ccc(cc1)C/C=C/CCO2 [Compound 59] | 8.1 nM and 7.3 nM |  |  |  |  | 1.7 | 1.6 | 4.4 nM | 5 |
| Cc1c2cnc3c1nnn3CCCC/C=C/Cc1ccc(cc1)C(=O)N1CCc3ccc(cc3C1)[C@H]2CC(=O)O [Compound 352] | 6.8 nM and 7.7 nM |  |  |  |  | 21.9 | 33 | 481 nM | 417 |
